Test [1] concerns the target T1, CCR4 receptor (Homo sapiens, UniProt P51679).
T1 construct: cDNA fragments of receptor open reading frame were respectively inserted into pcDI; expressed in transfected cells; host or cells: HEK293 cells, transiently transfected by electroporation with pCDI-CCR4
T1 sequence (P51679 1-360): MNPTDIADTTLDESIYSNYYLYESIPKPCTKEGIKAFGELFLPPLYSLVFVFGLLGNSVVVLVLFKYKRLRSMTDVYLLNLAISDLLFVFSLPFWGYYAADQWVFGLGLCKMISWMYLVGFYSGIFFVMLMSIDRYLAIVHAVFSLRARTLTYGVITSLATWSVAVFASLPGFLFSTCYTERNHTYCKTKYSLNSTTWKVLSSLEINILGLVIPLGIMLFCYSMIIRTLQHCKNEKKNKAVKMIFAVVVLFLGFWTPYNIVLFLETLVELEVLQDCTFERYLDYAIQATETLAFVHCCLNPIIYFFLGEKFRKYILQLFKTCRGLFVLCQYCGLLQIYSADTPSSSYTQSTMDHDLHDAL
The experiment in a line: Inhibition of MDC/TARC/C27 mediated chemotactic response of CCR4-transfected HEK293 cells (Boyden chamber). Format: cell-based. The conditions noted are these: chemotactic inhibition rate, compound 1 μM, HEK293 cells transfected with pCDI-CCR4, 5 hours. From the text:
Whether or not compounds 1-14 of the present invention can inhibit MDC (Peprotech) mediated chemotactic response of HEK293 cells was studied by using Boyden chamber (Neuro Probe, Inc.).
1. Construction of Receptor Expression Plasmid:
cDNA fragments including human chemokine receptor open reading frame were obtained by the following method: CCR4 receptor was cloned from a cDNA library of K562 cells through polymerase chain reaction (PCR). Primers were designed according to the sequence of Gen-Bank™ accession: CCR4 (NM_005508.2). cDNA fragments of receptor open reading frame were respectively inserted into pcDI (vector transformed in the chamber: eukaryotic expression vector obtained by replacing a BglII KpnI fragment of pcDNA3 (Invitrogen Corporation) plasmid with a BglII KpnI fragment of pCI (Promega Corporation) plasmid) expression vector so as to make them effectively express in HEK293 cells.
HEK293 cells were cultured in RPMI 1640 (Life Technologies, Inc.) containing 10% heat-inactivated fetal bovine serum, 100 U/mL penicillin, 100 μg/mL streptomycin. Each 4×10^6 HEK293 cells/400 μL were transiently transfected through electroporation with 15 μg chemokine receptor expression plasmids, under the condition of 120 V for 20 ms, the instrument used being electric pulse generator (Electro Square porator ECM 830, BTX, San Diego, Calif.). After 36-48 hr, chemotactic assay was carried out.
3. The Inhibitory Effect on MDC/TARC/C27 Mediated Chemotactic Response of HEK293 Cells
Chemokines MDC/TARC/C27 were diluted to 10 ng/mL with RPMI1640 (Life Technologies, Inc.), 0.1% BSA (Sigma), and added to lower holes in a 48-hole chemotactic chamber, 27.5 μL each hole. Eukaryotic expression plasmids pCDI-CCR4 were electrically shifted to HEK293 cells, and cultured normally for 36 hr. The cells were digested, re-suspended with RPMI1640, 10% FBS (Life Technologies, Inc.), and subjected to rotary incubation at 37° C. for 6.5 hours. The cells were washed twice with RPMI1640, and suspended in RPMI1640, 0.1% BSA, with a final concentration of 1×10^6/mL. The cells and the candidate compound dissolved in DMSO (Sigma) were subjected to rotary incubation at room temperature for half an hour, the final concentration of the candidate compound being 1 μM, and the final concentration of DMSO being 0.1%, and then added to upper holes in the chemotactic chamber, 55 μL each hole. The two layers were spaced by a polycarbon membrane with pore size of […] (Neuro Probe, Inc.). The chemotactic reaction was carried out in 5% CO2 at 37° C. for 5 hours. There were three groups of control in the experiment, wherein the first group was positive control, in which the transfected cells were directly added to upper holes without incubated with the candidate compound, while chemokines MDC/TARC/C27 were added to lower holes. The second group was negative control, in which the transfected cells were directly added to upper holes without incubated with the candidate compound, while RPMI1640, 0.1% BSA were added to lower holes. The third group was solvent DMSO control of the candidate compound, in which the transfected cells and DMSO were incubated at room temperature, the final concentration of DMSO being 0.1%, while chemokines MDC/TARC/C27 were added to lower holes. After completion of the chemotactic reaction, the membrane was removed, fixed and stained, and, at 400× high magnification, five horizons were randomly selected to count the cells, which were then summed. The ratio of the sum of the numbers of cells in five horizons at high magnification in each experimental group to the sum of the numbers of cells in five horizons at high magnification in the negative control group is obtained as Chemotactic Index (CI). Chemotactic inhibition rate was calculated as follows: […]

In test [2] the test system is mice rhinitis model. The test can be described thus: Mice rhinitis model experiment (OVA-sensitized BALB/c mice). Format: in vivo. Conditions: Example 8 compound 1 μg/Kg, budesonide 1.28 mg/Kg. Here is the method:
Mice Rhinitis Model Experiment
Female BALB/c mice (6-8 weeks) were sensitized with chicken ovalbumin (OVA, Sigma-Aldrich, St Louis, Mo., USA). The compound of the present invention (for example, the compound of Example 8) was administered to nasal mucosa, at a dose 1 μg/Kg. Glucocorticoid hormonal drug budesonide, a first-line clinical drug, was used as positive control, at a dose 1.28 mg/Kg. Meanwhile, there were provided a normal group wherein the mice were not sensitized and not administered, and an OVA group wherein the mice were sensitized and not administered. The following five indicators were detected: the number of sneezing, the number of nasal scratching within 10 min after administration; IL-4 level in bronchoalveolar lavage fluid; serum IgE level; lung tissue inflammation score. Lung tissue inflammation score was rated according to a single blind method: inflammation was divided into four levels from mild to severe, marked as 0-3 scores: 0 representing no detected inflammation; 1 representing occasional inflammatory cells being visible; 2 representing bronchus or blood vessel being surrounded by eosinophils, but less than five cell layers; 3 representing bronchus or blood vessel being surrounded by a large number of eosinophils, with 5 or more cell layers.

[3] abbreviates: chemokine C27 10 ng/mL, read-out: C27 inhibition rate.
The mark [4] stands for this setting: chemokine MDC 10 ng/mL, read-out: MDC inhibition rate.
Where [5] appears, read: chemokine TARC 10 ng/mL, read-out: TARC inhibition rate.
[6] abbreviates: OVA-sensitized female BALB/c mice, nasal mucosa, within 10 min after administration.

Like-named read-outs stand apart in the source and are kept apart here.

Usually inhibition stands for the relative decrease from the control value, in per cent.

As for `COC(CN(C)c1cc(NCc2ccc(Cl)cc2Cl)nc(N2CCN(C(=O)CCSC)CC2)n1)OC` [Compound 3, 1-{4-{4-[(2,4-dichlorobenzyl)amino]-6-[(2,2-dimethoxyethyl)methylamino]pyrimidin-2-yl}piperazin-1-yl}-3-methylthiopropanone], the results for the inhibition at 1 µM in test [1] (setting [3]), in test [1] (setting [4]) and in test [1] (setting [5]) were 43.9%, 35.5% and 58.3%, respectively.

Take `COC(CN(C)c1cc(NCc2ccc(Cl)cc2Cl)nc(N2CCN(C(=O)C(C)C)CC2)n1)OC` [Compound 2, 1-{4-{4-[(2,4-dichlorobenzyl)amino]-6-[(2,2-dimethoxyethyl)methylamino]pyrimidin-2-yl}piperazin-1-yl}-2-methylpropanone]: the inhibition at 1 µM in test [1] (setting [3]) came out at 39%; in test [1] (setting [4]), 36.1%; in test [1] (setting [5]), 41.7%.

In the case of `COCCN(CCOC)c1cc(NCc2ccc(Cl)cc2Cl)nc(N2CCN(C(=O)C(C)C)CC2)n1` [Compound 5, 1-{4-{4-[bis(2-methoxyethyl)amino]-6-(2,4-dichlorobenzylamino)-pyrimidin-2-yl}piperazin-1-yl}-2-methylpropanone], the inhibition at 1 µM was found to be 40.1% in test [1] (setting [3]), 54.5% in test [1] (setting [4]) and 39.1% in test [1] (setting [5]).

As to `O=C([C@@H]1CSCCN1)N1CCN(c2nc(NCc3ccc(Cl)cc3Cl)c3cccnc3n2)CC1` [Compound 14, (R)-{4-{4-[(2,4-dichlorobenzyl)amino]pyrido[2,3-d]pyrimidin-2-yl}piperazin-1-yl}(thiomorpholin-3-yl)methanone], the inhibition at 1 µM in test [1] (setting [3]) amounted to 30.5%; in test [1] (setting [4]) it was 62.1%; in test [1] (setting [5]), 73.6%.

Regarding `CC(C)C(=O)N1CCN(c2nc(NCc3ccc(Cl)cc3Cl)c3cccnc3n2)CC1` [Compound 11, 1-{4-{4-[(2,4-dichlorobenzyl)amino]pyrido[2,3-d]pyrimidin-2-yl}piperazin-1-yl}-2-methylpropanone], the values for the inhibition at 1 µM in test [1] (setting [3]), in test [1] (setting [4]) and in test [1] (setting [5]) were 35.2%, 32.3% and 61.4%, respectively.

Regarding `CCCN1CCN(c2nc(NCc3ccc(Cl)cc3Cl)c3cccnc3n2)CC1` [Compound 13, 4-[(2,4-dichlorobenzyl)amino]-2-(4-propylpiperazin-1-yl)pyrido[2,3-d]pyrimidine], the values for the inhibition at 1 µM in test [1] (setting [3]), in test [1] (setting [4]) and in test [1] (setting [5]) were 16.7%, 48.8% and 35.2%, respectively.

Regarding `COCCN(CCOC)c1cc(NCc2ccc(Cl)cc2Cl)nc(N2CCN(C(=O)CCSC)CC2)n1` [Compound 6, 1-{4-{4-[bis(2-methoxyethyl)amino]-6-(2,4-dichlorobenzylamino)-pyrimidin-2-yl}piperazin-1-yl}-3-methylthiopropanone], the inhibition at 1 µM in test [1] (setting [3]) is 51.2%; in test [1] (setting [4]) it was 19.4%; in test [1] (setting [5]), 55.7%.

Take `CCC(=O)N1CCN(c2nc(NCc3ccc(Cl)cc3Cl)cc(N(C)CC(OC)OC)n2)CC1` [Compound 1, 1-{4-{4-[(2,4-dichlorobenzyl)amino]-6-[(2,2-dimethoxyethyl)methylamino]pyrimidin-2-yl}piperazin-1-yl}propanone]: the inhibition at 1 µM in test [1] (setting [3]) was 25.3%; in test [1] (setting [4]), 36.3%; in test [1] (setting [5]), 46.4%.

Turning to `CCCC1O[C@@H]2C[C@H]3[C@@H]4CCC5=CC(=O)C=C[C@]5(C)[C@H]4[C@@H](O)C[C@]3(C)[C@]2(C(=O)CO)O1` (some centres unmarked) [Budesonide, budesonide, reference compound], the IL-4 in test [2] (IL-4 level in bronchoalveolar lavage fluid, OVA-sensitized mice) is recorded as 2.9 ± 1.5 pg/mL. Moreover, in test [2] (setting [6]), the Nasal scratching is on record as 12.0 ± 1.3 times/10 mins and the Sneezing was determined as 31.7 ± 4.0 times/10 mins. Further, the Inflammation score in test [2] (lung tissue inflammation score 0-3, single blind, OVA-sensitized mice) came out at 1.5 ± 0.6. For the same molecule, the IgE in test [2] (serum IgE level, OVA-sensitized mice) was 2822 ± 51 ng/mL.

Consider `CCC(=O)N1CCN(c2nc(NCc3ccc(Cl)cc3Cl)cc(N(CCOC)CCOC)n2)CC1` [Compound 4, 1-{4-{4-[bis(2-methoxyethyl)amino]-6-(2,4-dichlorobenzylamino)-pyrimidin-2-yl}piperazin-1-yl}propanone], for which the inhibition at 1 µM in test [1] (setting [3]) stood at 34.6%; in test [1] (setting [4]), 54.9%; in test [1] (setting [5]), 45.2%.

Consider `COCCN(CCOC)c1cc(NCc2ccc(Cl)cc2Cl)nc(N2CCN(C(=O)C3CCCCC3)CC2)n1` [Compound 7, {4-{4-[bis(2-methoxyethyl)amino]-6-(2,4-dichlorobenzylamino)-pyrimidin-2-yl}piperazin-1-yl}cyclohexylmethanone], for which the values for the inhibition at 1 µM in test [1] (setting [3]), in test [1] (setting [4]) and in test [1] (setting [5]) were 37.9%, 30% and 51%, respectively.

For the molecule `O=C([C@@H]1CSCCN1)N1CCN(c2nc(Cl)cc(NCc3ccc(Cl)cc3Cl)n2)CC1` [Compound 9, (R)-{4-{4-chloro-6-[(2,4-dichlorobenzyl)amino]pyrimidin-2-yl}piperazin-1-yl}(thiomorpholin-3-yl)methanone], the inhibition at 1 µM was found to be 39.5% in test [1] (setting [3]), 22.2% in test [1] (setting [4]) and 10.4% in test [1] (setting [5]).

Take `CCC(=O)N1CCN(c2nc(NCc3ccc(Cl)cc3Cl)c3cccnc3n2)CC1` [Compound 10, 1-{4-{4-[(2,4-dichlorobenzyl)amino]pyrido[2,3-d]pyrimidin-2-yl}piperazin-1-yl}propanone]: the inhibition at 1 µM in test [1] (setting [3]) was 38.3%; in test [1] (setting [4]), 32.3%; in test [1] (setting [5]), 59.8%.

Take `O=C(C1CCCCC1)N1CCN(c2nc(NCc3ccc(Cl)cc3Cl)c3cccnc3n2)CC1` [Compound 12, cyclohexyl{4-{4-[(2,4-dichlorobenzyl)amino]pyrido[2,3-d]pyrimidin-2-yl}piperazin-1-yl}methanone]: the inhibition at 1 µM is 6.17% in test [1] (setting [3]), 57.2% in test [1] (setting [4]) and 61.1% in test [1] (setting [5]).

Values taken from US9493453B2, “Piperazinyl pyrimidine derivatives, preparation method and use thereof” (INSTITUTE OF PHARMACOLOGY AND TOXICOLOGY ACADEMY OF …, priority 2012, dated 2016).
